In patent publication US11254652B2, “Crystalline forms of N-(4-(4-(cyclopropymethyl)piperazine-1-carbonyl)phenyl)quinoline-8-sulfonamide” (Agios Pharmaceuticals, Inc., priority 2017, dated 2022):
Values after ≈ are worked out from the molar mass of the structure shown. Where a name gives a salt, the structure may show the parent alone. Read-outs that look alike come from different tables or passages of the source.

How the values were obtained:
[1] = Pharmacokinetic evaluation after single PO suspension dose; assay type: in vivo, Sprague-Dawley rat; conditions: for AUC 0-last / Cmax: PO 200 mg/kg (free base equivalent), suspension in 0.5% methyl-cellulose, male Sprague-Dawley rats, n=6, plasma, 200 mg/kg; for AUC fold higher compared to crystalline free-base of Compound 1 / Cmax fold higher compared to crystalline free-base of Compound 1: PO suspension 200 mg/kg, fasted male Sprague-Dawley rats
Procedure: Single dose in suspension using Crystalline Form A micronized and unmicronized, and crystalline free base of Compound 1 were administered to male Sprague-Dawley rat at 200 mg/kg. Blood samples were collected in the presence of K2EDTA, and were centrifuged to obtain plasma. The plasma was then analyzed for these compounds by LC/MS.
All animals involved in the dosing schedule were weighted and assigned numbers. All suspension formulations were freshly made prior use. Each solution was prepared at 40 mg/mL in 0.5% methyl-cellulose solution in water. The tubes were vortex for 2 min and sonicate for 30 min to achieve a white homogenous suspension.
All animals (n=6/group) were dosed orally in a volume of 5 mL/kg. Following dosing, each rat was bled at each of the designated time points. Blood samples were collected from the tail vain. Blood aliquots (150 μl) were collected in tubes coated with K2EDTA, mixed gently then kept on ice and centrifuged at 2,000 g for 5 minutes at 4° C., within 15 min of collection. The plasma layer was collected and maintained frozen at −70° C. until further processing.
Bioanalytical quantitation using HPLC/triple quadruple mass spectrometry (HPLC-MS) was performed. Plasma concentrations and T½ were calculated and reported.
A 1 mg/mL standard solution in DMSO:methanol (20:80, v/v) was diluted in 50 fold and subsequently serial diluted in 50% methanol water. Aliquots (10 μl) of the serial dilutions were mixed with 190 ul of control plasma for use as a standard curve. Plasma samples (50 μl) and standard samples (non-diluted) were diluted 10× with ice cold acetonitrile containing 40 ng/ml dexamethasone as internal standard. Acetonitrile precipitated samples and standards were vortexed at 5 g for 2 min (IKA vortex), then centrifuged at 5000 g for 10 min.
For 10-fold dilution standard samples: an aliquot of 5 μL sample was added with 45 μL control plasma to obtain the diluted samples. If a 50-fold dilution standard sample was required: an aliquot of 10 μL 10-fold diluted sample was added with 40 μL blank plasma to obtain the final diluted samples. Then, the exaction procedure for diluted samples was same as those for non-diluted samples.
Samples and standards (10 μl) were injected into the LC-MS system, as described below. Concentrations of dose solutions were reported in mg/mL.
LC: 7.5 μl of each sample and standard were injected onto a Waters BEH C18 (2.1×50 mm, 1.7 μm, maintained at 60° C.) column at 0.6 mL/min by an UPLC. The column was equilibrated at 10% acetonitrile. Compounds were eluted with a gradient to 95% acetonitrile. All mobile phase contained 0.025% (v/v) formic acid with 1 mM ammonium acetate.
MS: Column eluent was analyzed by electrospray ionization into a triple quadruple mass spectrometer system. Eluent composition was analyzed for ion pair specifics to the internal standard and the analyte respectively.
Experimental samples were compared with standard curve samples to determine compound concentrations. Average compound concentrations (in ng/mL±standard deviation) were reported for each time-point. […] PK analysis was performed in Phoenix Winnonlin; Cmax were determined as the maximum average concentration observed at a given point, the area under the curve (AUC) was reported for t0 to tlast ours.

[2] = Dynamic Vapor Sorption (DVS); assay type: physicochemical; conditions: hemisulfate salt; for moisture picked up in DVS: 2% to 95% relative humidity, temperature not stated; for XRPD after DVS: Form A: DVS at 25° C. and 40° C.
Procedure: Dynamic Vapor Sorption (DVS) was done using a DVS Intrinsic 1. The sample is loaded into a sample pan and suspended from a microbalance. A typical sample mass for DVS measurement is 25 mg. Nitrogen gas bubbled through distilled water provides the desired relative humidity. A typical measurement comprises the steps: • 1. Equilibrate at 50% RH • 2. 50% to 2%. (50%, 40%, 30%, 20%, 10% and 2%) • a. Hold minimum of 5 mins and maximum of 60 minutes at each humidity. The pass criteria is less than 0.002% change • 3. 2% to 95% (2%, 10%, 20%, 30%, 40%, 50%, 60%, 70%, 80%, 90%, 95%) • b. Hold minimum of 5 mins and maximum of 60 minutes at each humidity. The pass criteria is less than 0.002% change • 4. 95% to 2% (95%, 80%, 70%, 60%, 50%, 40%, 30%, 20%, 10%, 2%) • c. Hold minimum of 5 mins and maximum of 60 minutes at each humidity. The pass criteria is less than 0.002% change • 5. 2% to 50% (2%, 10%, 20%, 30%, 40%, 50%) • d. Hold minimum of 5 mins and maximum of 60 minutes at each humidity. The pass criteria is less than 0.002% change
(§1) The water content by Karl Fisher was about 5.3%. […] A DVS isotherm taken at 40° C. was essentially the same as the one at 25° C. […] Humidity test was conducted on Form A with exposure to 11%, 48%, and 75% relative humidity at 40° C. for 2 weeks followed by XRPD analysis. […] Crystallographic data for Form A is as follows:
Form B tends to hold substantial amount of solvent.
(§2) Form D was determined to be anhydrous with a melting peak at 239° C. See e.g., FIG. 9. DVS of Pattern D was performed and solid picked up about 2% moisture from 2% to 95% relative humidity.

[3] = Solubility in water and simulated fluids at 37° C. (slurry, HPLC; XRPD of residual solid); assay type: physicochemical; conditions: values based on hemi-sulfate sesqui-hydrate salt, hemisulfate salt
Procedure: Solubility of Patterns A, B and D were measured in water. The solids were slurried in the fluids for two days and at 37° C. The supernatant was syringe filtered and used for HPLC analysis. For Patterns A and D the solubility measurement was repeated and the sample was taken after 1 hr slurry. A calibration curve was developed using Pattern A. This was not assay corrected and therefore the solubility values are based on the hemi-sulfate, sesqui-hydrate salt.
Both Patterns B and D converted to Pattern A after two days slurry. Pattern D also converted to Pattern A within 1 hour slurry in Fasted state simulated gastric fluid (FaSSGF) or water. […] This could be because of the conversion of Patterns B and D to Pattern A. The solubility data and the resulting XRPD Pattern after the measurement are reported in Table 21.

[4] = Humidity / desiccant exposure test followed by XRPD analysis; assay type: physicochemical; conditions: one week exposure to 75% relative humidity at 40° C.
Procedure: FIG. 5 (i) depicts X-ray powder diffraction pattern (XRPD) overlay for crystalline hemisulfate salt Form A and after exposure to 11%, 48%, and 75% relative humidity and 40° C. for two weeks. […] FIG. 5 (ii) depicts XRPD overlay for crystalline hemisulfate salt Form A and after exposure to phosphorus pentoxide (P2O5) granules at room temperature and 50° C. for one week, as well as ambient temperature in a vial for 24 hrs.
as §1, §2

[5] = Solubility in phosphate buffer pH7.4; assay type: physicochemical
[6] = Solubility measurements by gravimetric method in solvents at 23° C. and 50° C.; assay type: physicochemical; conditions: non-crystalline freebase; for solubility at 2 days: organic solvent or mixture, thermodynamic from solid, read-out: Solubility
Procedure: Solubility measurements were done by gravimetric method in 20 different solvents at two temperatures (23° C. and 50° C.). About 20-30 mg of Form A, the synthesis of which is described below, was weighed and 0.75 mL solvent was added to form a slurry. The slurry was then stirred for two days at the specified temperature. The vial was centrifuged and the supernatant was collected for solubility measurement through gravimetric method. The saturated supernatant was transferred into pre-weighed 2 mL HPLC vials and weighed again (vial+liquid). The uncapped vial was then left on a 50° C. hot plate to slowly evaporate the solvent overnight. The vials were then left in the oven at 50° C. and under vacuum to remove the residual solvent so that only the dissolved solid remained. The vial was then weighed (vial+solid). From these three weights; vial, vial+liquid and vial+solid; the weight of dissolved solid and the solvent were calculated. Then using solvent density the solubility was calculated as mg solid/mL of solvent.
20-30 mg of Form A was weighed into 2 mL vial and 500 μL MeOH solvent system as outlined in the table was added. If dissolved, more solids were added to form the slurry. The slurries were then stirred for two days. The vials were centrifuged and the supernatant was collected for solubility measurement through gravimetric method by evaporation at 50° C. XRPD analysis was conducted on the solid after filtration of the slurries.
For the sake of comparison, the solubility of Compound 1, i.e., the non-crystalline freebase, was also measured in two solvent systems to see the effect of water.

`O=C(c1ccc(NS(=O)(=O)c2cccc3cccnc23)cc1)N1CCN(CC2CC2)CC1` [Crystalline free-base of Compound 1, N-(4-(4-(cyclopropylmethyl)piperazine-1-carbonyl)phenyl)quinoline-8-sulfonamide] showed an AUC 0-last [1] of 125 ± 85.8 µg·h/mL and a Cmax [1] of 17900 ± 3600 ng/mL.
For `O=C(c1ccc(NS(=O)(=O)c2cccc3cccnc23)cc1)N1CCN(CC2CC2)CC1` [Form D, N-(4-(4-(cyclopropylmethyl)piperazine-1-carbonyl)phenyl)quinoline-8-sulfonamide hemisulfate salt], the “moisture picked up in DVS” value ([2]; listed as Pattern D) was “about 2%”, the “XRPD after DVS” value ([2]; listed as Pattern D) was “remained unchanged” and the Solubility ([3]; FaSSGF, slurry time 1 hr) was 5.43 mg Solid/mL solvent. For the same molecule, the Solubility ([3]; FaSSGF, slurry time 2 days, listed as D) was 5.94 mg Solid/mL solvent, the Solubility ([3]; FaSSIF, slurry time 2 days, listed as D) was 3.49 mg Solid/mL solvent and the Solubility ([3]; Water, slurry time 1 hr) was 2.62 mg Solid/mL solvent. For the same molecule, the Solubility ([3]; Water, slurry time 2 days, listed as D) was 2.71 mg Solid/mL solvent and the “form after humidity exposure” value [4] was “did not change the form”.
In the case of `O=C(c1ccc(NS(=O)(=O)c2cccc3cccnc23)cc1)N1CCN(CC2CC2)CC1` [Crystalline Form A (micronized), 1-(cyclopropylmethyl)-4-(4-(quinoline-8-sulfonamido)benzoyl)piperazin-1-ium hemisulfate sesquihydrate], the AUC 0-last ([1]; hemisulfate sesquihydrate) is reported as 478 ± 87.9 µg·h/mL, the Cmax ([1]; hemisulfate sesquihydrate) is reported as 36700 ± 6800 ng/mL and the “AUC fold higher compared to crystalline free-base of Compound 1” value ([1]; hemisulfate sesquihydrate) is reported as 3.8 fold. The “Cmax fold higher compared to crystalline free-base of Compound 1” value ([1]; hemisulfate sesquihydrate) was 2 fold and the “solubility compared to crystalline free-base of Compound 1” value [5] was “more soluble”.
With `O=C(c1ccc(NS(=O)(=O)c2cccc3cccnc23)cc1)N1CCN(CC2CC2)CC1` [Form B, N-(4-(4-(cyclopropylmethyl)piperazine-1-carbonyl)phenyl)quinoline-8-sulfonamide hemisulfate salt] the “moisture picked up in DVS” value [2] was “about 14%”, the “XRPD after DVS” value [2] was “converted to a different Form K” and the Solubility ([3]; FaSSGF, slurry time 2 days, listed as B) was 6.53 mg Solid/mL solvent. The Solubility ([3]; FaSSIF, slurry time 2 days, listed as B) was 0.20 mg Solid/mL solvent and the Solubility ([3]; Water, slurry time 2 days, listed as B) was 3.02 mg Solid/mL solvent.
In the case of `O=C(c1ccc(NS(=O)(=O)c2cccc3cccnc23)cc1)N1CCN(CC2CC2)CC1` [Compound 1, N-(4-(4-(cyclopropylmethyl)piperazine-1-carbonyl)phenyl)quinoline-8-sulfonamide], the solubility at 2 days ([6]; MeOAc:MeOH (1:1) and 2.5 vol % water, 23 °C, MeOAc:MeOH (1:1) and 2.5 vol % water, 23° C.) is reported as 15 mg/mL (≈ 33.3 mM), the solubility at 2 days ([6]; MeOAc:MeOH (1:1) and 2.5 vol % water, 50 °C, MeOAc:MeOH (1:1) and 2.5 vol % water, 50° C.) is reported as 36 mg/mL (≈ 79.9 mM) and the solubility at 2 days ([6]; MeOAc:MeOH (1:1), 23 °C, MeOAc:MeOH (1:1), 23° C.) is reported as 15 mg/mL (≈ 33.3 mM). For the same molecule, the solubility at 2 days ([6]; MeOAc:MeOH (1:1), 50 °C, MeOAc:MeOH (1:1), 50° C.) was 34 mg/mL (≈ 75.5 mM) and the “impact of 2.5 vol % water on solubility” value ([6]; MeOAc:MeOH (1:1)) was “did not have any impact”.
In the case of `O=C(c1ccc(NS(=O)(=O)c2cccc3cccnc23)cc1)N1CCN(CC2CC2)CC1` [Crystalline Form A (unmicronized), 1-(cyclopropylmethyl)-4-(4-(quinoline-8-sulfonamido)benzoyl)piperazin-1-ium hemisulfate sesquihydrate], the AUC 0-last ([1]; hemisulfate sesquihydrate) is reported as 356 ± 82.9 µg·h/mL, the Cmax ([1]; hemisulfate sesquihydrate) is reported as 29800 ± 5300 ng/mL and the “AUC fold higher compared to crystalline free-base of Compound 1” value ([1]; hemisulfate sesquihydrate) is reported as 2.7 fold. For the same molecule, the “Cmax fold higher compared to crystalline free-base of Compound 1” value ([1]; hemisulfate sesquihydrate) was 1.6 fold and the “solubility compared to crystalline free-base of Compound 1” value [5] was “more soluble”.
